Source: PubChem BioAssay (NCI)
Where “and” joins values, the source holds several entries; their conditions need not be identical. Identical values can stand only once.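 Cultured in 96-well plates, cells were exposed to test compound for 48 hours across five concentrations. GI50: concentration for 50% inhibition of growth. The concentration for full growth arrest is given as TGI.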

Key:
Assay in all cases: NCI anticancer screen, dose series, 48 h
SK-OV-3 ovarian = tested on: SK-OV-3 ovarian
A498 renal = tested on: A498 renal
HOP-92 NSCLC = tested on: HOP-92 NSCLC
TK-10 renal = tested on: TK-10 renal
UACC-257 melanoma = tested on: UACC-257 melanoma
RPMI-8226 leukemia = tested on: RPMI-8226 leukemia
SK-MEL-28 melanoma = tested on: SK-MEL-28 melanoma
HT29 colon = tested on: HT29 colon
NCI/ADR-RES ovarian = tested on: NCI/ADR-RES ovarian
SNB-19 CNS = tested on: SNB-19 CNS

Row | Compound | GI50 (SK-OV-3 ovarian) [µM] | TGI (SK-OV-3 ovarian) [µM] | GI50 (A498 renal) [µM] | TGI (A498 renal) | GI50 (HOP-92 NSCLC) [µM] | TGI (HOP-92 NSCLC) [µM] | GI50 (TK-10 renal) [µM] | TGI (TK-10 renal) [µM] | GI50 (UACC-257 melanoma) [µM] | TGI (UACC-257 melanoma) | GI50 (RPMI-8226 leukemia) [µM] | TGI (RPMI-8226 leukemia) [µM] | GI50 (SK-MEL-28 melanoma) [µM] | TGI (SK-MEL-28 melanoma) [µM] | GI50 (HT29 colon) [µM] | TGI (HT29 colon) [µM] | GI50 (NCI/ADR-RES ovarian) [µM] | TGI (NCI/ADR-RES ovarian) [µM] | GI50 (SNB-19 CNS) [µM] | TGI (SNB-19 CNS) [µM]
1 | COc1ccc(-c2cc3c(nn2)-c2ccccc2C3=O)cc1 | > 100 | > 100 | > 100 | > 100 µM | > 100 | > 100 | > 100 | > 100 | > 100 | > 100 µM | > 100 | > 100 | > 100 | > 100 | > 100 | > 100 | > 100 | > 100 | > 100 | > 100
2 | COc1cc(Cn2c(-c3ccccc3)cc3c2-c2oncc2CC3)cc(OC)c1OC | 1.53 | > 100 | 0.271 | 2.06 µM | 12.7 | > 100 | 7.7 | > 100 | 20.2 | > 100 µM | 5.43 | > 100 | 1.14 | 45.9 | 0.446 | 47.2 | 0.328 | > 100 | 1.93 | > 100
3 | NCCCCn1c2c(c3ccccc3c1=O)C(=O)c1ccccc1-2 | 1.04 | 9.81 | 0.543 | 1.71 µM | 0.0363 | 0.535 | 0.226 | 1.25 | 0.619 | 1.91 µM | 0.0887 | 0.932 | 0.671 |  | 0.163 |  | 0.709 | 2.54 | 0.389 | 12.2
4 | COc1ccc(C2CC(=O)c3c(OC)cc(OC)cc3O2)cc1 (configuration not stated) | > 100 | > 100 | > 100 | > 100 µM | 18.4 | > 100 | > 100 | > 100 | > 100 | > 100 µM | > 100 | > 100 | > 100 | > 100 | > 100 | > 100 | > 100 | > 100 | > 100 | > 100
5 | COc1ccc(-n2cc(-c3cc(OC)c(OC)c(OC)c3)[nH]c2=S)cc1OC | > 100 | > 100 | > 100 | > 100 µM | > 100 | > 100 | > 100 | > 100 | > 100 | > 100 µM | > 100 | > 100 | > 100 | > 100 | > 100 | > 100 | > 100 | > 100 | > 100 | > 100
6 | CN(C)C(=S)SN(C)C(=O)Nc1ccccc1 |  | > 100 |  | > 33.8 µM |  | 22.2 |  | > 100 |  | > 63.1 µM |  | > 100 |  | 53.6 |  | 24.4 |  | 11.1 |  | > 100
7 | CC(=O)[O][Hg][c]1c(C)c(C)c(C)c(C)c1C | 2.69 | 6.04 | 2.68 | 5.4 µM | 1.6 | 3.12 | 2.03 | 3.72 | 1.73 | 3.45 µM | 1.8 | 6.22 | 1.26 | 2.63 | 2.02 | 4.77 | 7.17 | 33.4 | 1.48 | 2.89
8 | COc1ccc2cc(C(=O)/C=C/c3cccc(OC)c3OC)ccc2c1 | 23.7 | 45.9 | 13.3 | 26.6 µM | 36.2 | > 100 | 25.3 | 65.1 | 15 | 29.8 µM | 6.86 | > 100 | 19.4 | 44.5 | 4.07 | 17.6 | 6.57 | 34.3 | 15.6 | 33.5
9 | CC(C)CC(N)C(=O)O (configuration not stated) |  | > 100 |  | > 100 µM |  | > 100 |  | > 100 |  | > 100 µM |  | > 100 |  | > 100 |  | > 100 |  | > 100 |  | > 100
10 | N#C/C(C(=S)Nc1ccccc1)=C1/NN=C2c3ccccc3C(=O)NN21 | 19.6 | 59.8 | 21.3 | 53.1 µM | 29.2 | 88.7 | 21.2 | 50.4 | 39 | > 100 µM | 32.3 | > 100 | 25.3 | 97.7 | 29.2 | > 100 | 20.6 | 58.8 | 30.4 | > 100
11 | CCCCNC(=O)NS(=O)(=O)c1ccc(N2N=C(c3ccc(C)cc3C)CC2c2ccc(N(C)C)cc2)cc1 (configuration not stated) | 8.16 | > 100 | 3.9 | 25.9 µM | 2.39 | 31.4 | 5.64 | > 100 | 4.04 | > 100 µM | 2.99 | 9.66 | 2.56 | 7.96 | 4.2 | 19.9 | 4.12 | > 100 | 4.59 | > 100
12 | C[C@]12CC[C@@H]3c4ccc(O)cc4C[C@@H](CCCCCCCCCS(=O)CCCC(F)(F)C(F)(F)F)[C@H]3[C@@H]1CC[C@@H]2O (some centres not stated) | > 100 | > 100 | > 100 | > 100 µM | > 100 | > 100 | > 51.8 | > 100 | > 100 | > 100 µM | 2.35 | > 100 | > 100 | > 100 | > 100 | > 100 | > 100 | > 100 | > 100 | > 100
13 | CC12CCCC(CC(=O)c3[nH]c4ccccc4c31)C2 (configuration not stated) | 3.53 | > 76.1 | 0.483 | 4 µM | 2.56 | 36.7 | 14.6 | > 90.4 | 15.2 | > 100 µM | 0.656 | 12.7 | 2.03 | > 100 | 0.377 | 6.27 | 0.439 | 6.96 | 1.48 | > 100
14 | O=c1[nH]c(=O)n(C2CC(O)C(CS)O2)cc1F (configuration not stated) |  | > 100 |  | > 86.2 µM |  | > 96.7 |  | > 100 |  | > 100 µM |  | > 100 |  | > 100 |  | > 100 |  | > 11.7 |  | > 100
15 | COc1ccc(C(=O)/C=C/c2cccnc2Nc2cc(OC)c(OC)c(OC)c2)cc1 | 4.12 | 16.4 | 1.8 | 13.1 µM | 2.4 | 11.8 | 1.83 | 5.53 | 3.93 | 15 µM | 0.885 | 4.71 | 2.7 | 8.29 | 0.38 | 1.6 | 1 | 6.29 | 2.82 | 17.3
16 | CN1C(NC(=O)c2ccc(Cl)nc2)=NS(=O)(=O)c2cc(Cl)ccc21 | > 100 | > 100 | > 100 | > 100 µM | > 100 | > 100 | > 100 | > 100 | > 100 | > 100 µM | > 100 | > 100 | > 100 | > 100 | > 100 | > 100 | > 100 | > 100 | > 100 | > 100
17 | CCCNC(=S)N/N=C(\C)c1ccccn1 | 0.615 | > 100 | 0.435 | 4.83 µM | 0.115 | > 100 | 0.71 | > 100 | 0.038 | 1.38 µM | 0.0268 | > 100 | 1.98 | > 100 | < 0.0127 | > 100 | 0.0365 | > 100 | 1.81 | > 100
18 | Cc1cc(C2CCCCC2)n(O)c(=O)c1 | 1.91 | > 100 | 7 | > 100 µM and 46.7 µM |  | 21.5 | 9.91 | > 100 | 2.6 | 21.9 µM and 8.45 µM |  | 46.8 | 4.07 | > 100 | 5.27 | > 100 | 1.22 | 14.9 | 2.37 | > 100
19 | Cc1[nH]c(N=Nc2ccccc2)nc1N=Nc1ccccc1 | 3.14 | > 32.4 | 5.1 | 25.6 µM | 2.34 | 20.3 | 1.85 | > 32.9 | 2.26 | 5.89 µM | 1.17 | 8.38 | 4.5 | > 41 | 4.57 | 20.8 | 2.78 | 27.3 | 3.63 | > 87.7
20 | CCC1(O)C(=O)OCc2c1cc1n(c2=O)Cc2cc3c(N)cccc3nc2-1 (configuration not stated) |  | 0.804 |  | 1.39 µM |  | 0.931 |  | 35.8 |  | 2.62 µM | 0.0279 | 0.879 |  | 9.19 |  | 22.8 |  | 0.228 |  | 26.1
21 | CC(C)(C)C1=CC(=CC=C2C=CN(CCCCCCCCCCCO)C=C2)C=C(C(C)(C)C)C1=O |  | 5.81 |  | 7.3 µM |  | 6.16 |  | 3.67 |  | 4.4 µM |  | 1.94 |  | 3 |  | > 25.7 |  | 11.7 |  | 3.15
